Source: patent US12077503B2, “Substituted cyclic amides and their use as herbicides” (FMC CORPORATION, priority 2015, dated 2024)

Key:
Type in all cases: in vivo
[1] = system: giant foxtail (Setaria faberi); assay: Test G Post-Emergence Protocol; settings: Setaria faberi, post-emergence, 312 h; for pest or weed control at 15.625 g/ha: 15.625 g ai/ha, evaluated after 13 days (100=total damage to plant; 0=no damage to plant), read-out: Foxtail, Giant damage rating; for pest or weed control at 62.5 g/ha: 62.5 g ai/ha, read-out: Foxtail, Giant damage rating (100=total damage to plant; 0=no damage to plant); for pest or weed control at 62.5 g/ha / pest or weed control at 250 g/ha: evaluated after 13 days; for pest or weed control at 250 g/ha: 250 g ai/ha, read-out: damage to plant, Foxtail, Giant (100=total damage to plant; 0=no damage to plant)
Summary of the method: (§1)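 Values are percent visual injury at 13 days after treatment (0 none, 100 total). Treatment was a post-emergence spray at 15.625, 62.5 or 250 g/ha on 8-day-old pot plants kept at 24/16 °C.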

[2] = system: barnyardgrass (Echinochloa crus-galli); assay: Test G Post-Emergence Protocol; settings: Echinochloa crus-galli, post-emergence, 312 h; for pest or weed control at 15.625 g/ha: 15.625 g ai/ha, evaluated after 13 days (100=total damage to plant; 0=no damage to plant), read-out: Barnyardgrass damage rating; for pest or weed control at 62.5 g/ha: 62.5 g ai/ha, read-out: Barnyardgrass damage rating (100=total damage to plant; 0=no damage to plant); for pest or weed control at 62.5 g/ha / pest or weed control at 250 g/ha: evaluated after 13 days; for pest or weed control at 250 g/ha: 250 g ai/ha, read-out: damage to plant, Barnyardgrass (100=total damage to plant; 0=no damage to plant)
Summary of the method: as §1

[3] = system: redroot pigweed (Amaranthus retroflexus); assay: Test G Post-Emergence Protocol; settings: Amaranthus retroflexus, post-emergence, 312 h; for pest or weed control at 15.625 g/ha: 15.625 g ai/ha, evaluated after 13 days (100=total damage to plant; 0=no damage to plant), read-out: Pigweed, Redroot damage rating; for pest or weed control at 62.5 g/ha: 62.5 g ai/ha, read-out: Pigweed, Redroot damage rating (100=total damage to plant; 0=no damage to plant); for pest or weed control at 62.5 g/ha / pest or weed control at 250 g/ha: evaluated after 13 days; for pest or weed control at 250 g/ha: 250 g ai/ha, read-out: damage to plant, Pigweed, Redroot (100=total damage to plant; 0=no damage to plant)
Summary of the method: as §1

corn (Zea mays) [4] = assay: Test G Post-Emergence Protocol; settings: Zea mays, post-emergence, 312 h; for plant injury at 15.625 g/ha: 15.625 g ai/ha, evaluated after 13 days (100=total damage to plant; 0=no damage to plant), read-out: Corn damage rating; for plant injury at 62.5 g/ha: 62.5 g ai/ha, read-out: Corn damage rating (100=total damage to plant; 0=no damage to plant); for plant injury at 62.5 g/ha / plant injury at 250 g/ha: evaluated after 13 days; for plant injury at 250 g/ha: 250 g ai/ha, read-out: damage to plant, Corn (100=total damage to plant; 0=no damage to plant)
Summary of the method: as §1

[5] = system: ivy-leaved morning glory (Ipomoea hederacea); assay: Test G Post-Emergence Protocol; settings: Ipomoea, post-emergence, 312 h; for pest or weed control at 15.625 g/ha: 15.625 g ai/ha, evaluated after 13 days (100=total damage to plant; 0=no damage to plant), read-out: Morningglory, Ivy-leaved damage rating; for pest or weed control at 62.5 g/ha: 62.5 g ai/ha, read-out: Morningglory, Ivy-leaved damage rating (100=total damage to plant; 0=no damage to plant); for pest or weed control at 62.5 g/ha / pest or weed control at 250 g/ha: evaluated after 13 days; for pest or weed control at 250 g/ha: 250 g ai/ha, read-out: damage to plant, Morningglory, Ivy-leaved (100=total damage to plant; 0=no damage to plant)
Summary of the method: as §1

[6] = system: velvetleaf (Abutilon theophrasti); assay: Test G Post-Emergence Protocol; settings: Abutilon theophrasti, post-emergence, 312 h; for pest or weed control at 15.625 g/ha: 15.625 g ai/ha, evaluated after 13 days (100=total damage to plant; 0=no damage to plant), read-out: Velvetleaf damage rating; for pest or weed control at 62.5 g/ha: 62.5 g ai/ha, read-out: Velvetleaf damage rating (100=total damage to plant; 0=no damage to plant); for pest or weed control at 62.5 g/ha / pest or weed control at 250 g/ha: evaluated after 13 days; for pest or weed control at 250 g/ha: 250 g ai/ha, read-out: damage to plant, Velvetleaf (100=total damage to plant; 0=no damage to plant)
Summary of the method: as §1

[7] = system: giant foxtail (Setaria faberi); assay: Test G Pre-Emergence Protocol; settings: Setaria faberi, pre-emergence, 312 h, evaluated after 13 days; for pest or weed control at 15.625 g/ha: 15.625 g ai/ha; for pest or weed control at 15.625 g/ha / pest or weed control at 250 g/ha: read-out: Foxtail, Giant damage rating (100=total damage to plant; 0=no damage to plant); for pest or weed control at 62.5 g/ha: 62.5 g ai/ha, 100=total damage to plant, 0=no damage to plant, read-out: plant damage rating, Foxtail, Giant; for pest or weed control at 250 g/ha: 250 g ai/ha
Summary of the method: (§2)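 One day after sowing, pots are treated with a spray of test compound formulated in acetone/water 50:50 plus 0.5% Tween 20, giving 15.625, 62.5 or 250 g/ha. Evaluation on a 0–100 damage scale follows 13 days of glasshouse growth.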

[8] = system: barnyardgrass (Echinochloa crus-galli); assay: Test G Pre-Emergence Protocol; settings: Echinochloa crus-galli, pre-emergence, 312 h, evaluated after 13 days; for pest or weed control at 15.625 g/ha: 15.625 g ai/ha, read-out: Barnyard grass damage rating (100=total damage to plant; 0=no damage to plant); for pest or weed control at 62.5 g/ha: 62.5 g ai/ha, 100=total damage to plant, 0=no damage to plant, read-out: plant damage rating, Barnyardgrass; for pest or weed control at 250 g/ha: 250 g ai/ha, read-out: Barnyardgrass damage rating (100=total damage to plant; 0=no damage to plant)
Summary of the method: as §2

[9] = system: redroot pigweed (Amaranthus retroflexus); assay: Test G Pre-Emergence Protocol; settings: Amaranthus retroflexus, pre-emergence, 312 h, evaluated after 13 days; for pest or weed control at 15.625 g/ha: 15.625 g ai/ha; for pest or weed control at 15.625 g/ha / pest or weed control at 250 g/ha: read-out: Pigweed, Redroot damage rating (100=total damage to plant; 0=no damage to plant); for pest or weed control at 62.5 g/ha: 62.5 g ai/ha, 100=total damage to plant, 0=no damage to plant, read-out: plant damage rating, Pigweed, Redroot; for pest or weed control at 250 g/ha: 250 g ai/ha
Summary of the method: as §2

corn (Zea mays) [10] = assay: Test G Pre-Emergence Protocol; settings: Zea mays, pre-emergence, 312 h, evaluated after 13 days; for plant injury at 15.625 g/ha: 15.625 g ai/ha; for plant injury at 15.625 g/ha / plant injury at 250 g/ha: read-out: Corn damage rating (100=total damage to plant; 0=no damage to plant); for plant injury at 62.5 g/ha: 62.5 g ai/ha, 100=total damage to plant, 0=no damage to plant, read-out: plant damage rating, Corn; for plant injury at 250 g/ha: 250 g ai/ha
Summary of the method: as §2

[11] = system: ivy-leaved morning glory (Ipomoea hederacea); assay: Test G Pre-Emergence Protocol; settings: Ipomoea, pre-emergence, 312 h, evaluated after 13 days; for pest or weed control at 15.625 g/ha: 15.625 g ai/ha, read-out: Morning-glory, Ivy-leaved damage rating (100=total damage to plant; 0=no damage to plant); for pest or weed control at 62.5 g/ha: 62.5 g ai/ha, 100=total damage to plant, 0=no damage to plant, read-out: plant damage rating, Morningglory, Ivy-leaved; for pest or weed control at 250 g/ha: 250 g ai/ha, read-out: Morningglory, Ivy-leaved damage rating (100=total damage to plant; 0=no damage to plant)
Summary of the method: as §2

[12] = system: velvetleaf (Abutilon theophrasti); assay: Test G Pre-Emergence Protocol; settings: Abutilon theophrasti, pre-emergence, 312 h, evaluated after 13 days; for pest or weed control at 15.625 g/ha: 15.625 g ai/ha; for pest or weed control at 15.625 g/ha / pest or weed control at 250 g/ha: read-out: Velvetleaf damage rating (100=total damage to plant; 0=no damage to plant); for pest or weed control at 62.5 g/ha: 62.5 g ai/ha, 100=total damage to plant, 0=no damage to plant, read-out: plant damage rating, Velvetleaf; for pest or weed control at 250 g/ha: 250 g ai/ha
Summary of the method: as §2

Row | SMILES | pest or weed control at 15.625 g/ha [1] [%] | pest or weed control at 62.5 g/ha [1] [%] | pest or weed control at 250 g/ha [1] [%] | pest or weed control at 15.625 g/ha [2] [%] | pest or weed control at 62.5 g/ha [2] [%] | pest or weed control at 250 g/ha [2] [%] | pest or weed control at 15.625 g/ha [3] [%] | pest or weed control at 62.5 g/ha [3] [%] | pest or weed control at 250 g/ha [3] [%] | plant injury at 15.625 g/ha (corn (Zea mays) [4]) [%] | plant injury at 62.5 g/ha (corn (Zea mays) [4]) [%] | plant injury at 250 g/ha (corn (Zea mays) [4]) [%] | pest or weed control at 15.625 g/ha [5] [%] | pest or weed control at 62.5 g/ha [5] [%] | pest or weed control at 250 g/ha [5] [%] | pest or weed control at 15.625 g/ha [6] [%] | pest or weed control at 62.5 g/ha [6] [%] | pest or weed control at 250 g/ha [6] [%] | pest or weed control at 15.625 g/ha [7] [%] | pest or weed control at 62.5 g/ha [7] [%] | further results
1 | CN1C[C@H](c2ccc(C(F)(F)F)cc2)[C@@H](C(=O)Nc2ncccc2C#N)C1=O (racemic) [Compound 1433] | 0 | 0 | 0 | 0 | 0 | 0 | 0 | 0 | 0 | 0 | 0 | 0 | 0 | 0 | 0 | 0 | 0 | 0 | 0 | 0 | pest or weed control at 250 g/ha [7]: 0%; pest or weed control at 15.625 g/ha [8]: 0%; pest or weed control at 62.5 g/ha [8]: 0%; pest or weed control at 250 g/ha [8]: 0%; pest or weed control at 15.625 g/ha [9]: 0%; pest or weed control at 62.5 g/ha [9]: 0%; pest or weed control at 250 g/ha [9]: 0%; plant injury at 15.625 g/ha (corn (Zea mays) [10]): 0%; plant injury at 62.5 g/ha (corn (Zea mays) [10]): 0%; plant injury at 250 g/ha (corn (Zea mays) [10]): 0%; pest or weed control at 15.625 g/ha [11]: 0%; pest or weed control at 62.5 g/ha [11]: 0%; pest or weed control at 250 g/ha [11]: 0%; pest or weed control at 15.625 g/ha [12]: 0%; pest or weed control at 62.5 g/ha [12]: 0%; pest or weed control at 250 g/ha [12]: 0%
2 | C=CCc1c(Cl)cccc1NC(=O)[C@H]1C(=O)N(C)C[C@@H]1c1ccc(C(F)(F)F)cc1 (racemic) [Compound 1440] | 0 | 20 | 60 | 0 | 0 | 10 | 0 | 10 | 20 | 0 | 10 | 20 | 0 | 0 | 10 | 0 | 0 | 0 | 0 | 50 | pest or weed control at 250 g/ha [7]: 80%; pest or weed control at 15.625 g/ha [8]: 0%; pest or weed control at 62.5 g/ha [8]: 10%; pest or weed control at 250 g/ha [8]: 40%; pest or weed control at 15.625 g/ha [9]: 0%; pest or weed control at 62.5 g/ha [9]: 0%; pest or weed control at 250 g/ha [9]: 0%; plant injury at 15.625 g/ha (corn (Zea mays) [10]): 0%; plant injury at 62.5 g/ha (corn (Zea mays) [10]): 0%; plant injury at 250 g/ha (corn (Zea mays) [10]): 0%; pest or weed control at 15.625 g/ha [11]: 0%; pest or weed control at 62.5 g/ha [11]: 0%; pest or weed control at 250 g/ha [11]: 0%; pest or weed control at 15.625 g/ha [12]: 0%; pest or weed control at 62.5 g/ha [12]: 0%; pest or weed control at 250 g/ha [12]: 0%
